These results are taken from ChEMBL document CHEMBL5052820, “Organic compounds” (2019).

A short description of this assay: Activation of mouse GPR15 stably expressed in CHO cells expressing Aequorin and Galpha16 measured by luminiscence assay. The class given is cell-based.

Where a SMILES comes first, the peptide text is derived from it.

For `CC(C)C[C@H](NC(=O)[C@H](CCC(N)=O)NC(=O)[C@@H]1CCCN1C(=O)[C@H](CCCCN)NC(=O)[C@@H](N)CCC(N)=O)C(=O)N[C@@H](Cc1c[nH]c2ccccc12)C(=O)N[C@H](C(=O)N[C@H](C(=O)N1CCC[C@H]1C(=O)NCC(=O)N[C@@H](C)C(=O)N[C@@H](CC(C)C)C(=O)N1CCC[C@H]1C(=O)N[C@@H](CCC(N)=O)C(=O)N[C@H](C(=O)O)C(C)C)C(C)C)C(C)C` (H-QKPQLWVVPGALPQV-OH), a half-maximal effect (EC50) was put at 4.02 µM.
